The values that follow come from patent US8962637B2, “Bicyclic compounds and their uses as dual c-SRC/JAK inhibitors” (Debiopharm S.A., priority 2010, dated 2015).

Assay [1] concerns the target JAK1 (Homo sapiens (Human), UniProt P23458). The experiment in a line: JAK1 kinase inhibition. Type of assay: biochemical. As to conditions: for inhibition at 0.1 µM: read-out: JAK1 % inhibition at 100 nM; for inhibition at 1 µM: read-out: JAK1 % inhibition at 1 μM.
In assay [2] the target is JAK2 (Homo sapiens (Human), UniProt O60674). The experiment in a line: TR-FRET JAK2 kinase assay. The assay is classed as biochemical. As to conditions: ATP 10 μM; for inhibition at 0.1 µM: read-out: JAK2 % inhibition at 100 nM, 100 nM; for inhibition at 1 µM: read-out: JAK2 % inhibition at 1 μM. On the procedure:
(§1) Compounds were screened in the TR-FRET assay for JAK2 and c-Src kinase inhibition. Ultra light poly GT (Perkin Elmer) was used as the substrate for JAK2 and c-Src with the ATP concentration of 10 μM and 50 μM, respectively. […] The dose-response curve fitting was done using GraphPad Prism software.
(TR-FRET usually uses a lanthanide donor and a delayed reading to cut background.)

The target in assay [3] is c-Src (Homo sapiens (Human), UniProt P12931). The experiment in a line: TR-FRET c-Src kinase assay. Type of assay: biochemical. As to conditions: ATP 50 μM. On the procedure: as §1
For assay [4], the system named is Mda-Mb-231 cells. The experiment in a line: Cell viability assay (XTT assay), Mda-Mb-231. The assay is classed as cell-based. As to conditions: Homo sapiens, 72 hrs. As for the experimental part: Mda-Mb-231 or A549 cells were seeded onto a 96-well micro plate. Next day compounds were added to cells and incubated for 72 hrs. Compound treatment was done in triplicates. After 72 hrs cell culture media was aspirated from the wells and XTT working solution was added and plates were incubated for 2-5 hrs. The absorbance of the samples was measured with a spectrophotometer at a wavelength of 465 nm. EC50 values were calculated using Graphpad Prism. Tumor cell lines used in the examples of the present invention were procured from ATCC. Description of the cell lines is included in the following table: […]
On the technique in general: Tetrazolium dyes change colour on reduction, which living cells bring about.

Assay [5] relates to A431 cancer cell line. The experiment in a line: Inhibition of cell growth in A431. Type of assay: cell-based. As to conditions: Homo sapiens, A-431.
In assay [6] the test system is pStat3. The experiment in a line: In-Cell-Western blot assay for pStat3 (ICW) in A431 cells. Type of assay: cell-based. The following applies: Homo sapiens, A-431, 2 hrs, read-out: pSTAT3 inhibition. On the procedure: A431 cells were seeded onto a 96-well micro plate. After overnight serum starvation cells were incubated with compounds for 2 hrs. Cells were fixed with 4% paraformaldehyde in PBS and then permeabilized with 0.1% Triton X-100 in PBS (PBST). Cells were blocked with 5% BSA in PBST for 2 hrs, followed by overnight incubation with phospho Stat3 antibody. Cells were washed and incubated with europium-labeled anti-rabbit secondary antibody for 2 hrs. After washing enhancement solution was added to the wells. The micro-plate was read on the Victor instrument at the Europium setting. The Hoechst readings were used to normalize for cell number. IC50 values were calculated with the normalized europium values using Graphpad Prism.

Sequence of JAK2 (O60674 whole entry): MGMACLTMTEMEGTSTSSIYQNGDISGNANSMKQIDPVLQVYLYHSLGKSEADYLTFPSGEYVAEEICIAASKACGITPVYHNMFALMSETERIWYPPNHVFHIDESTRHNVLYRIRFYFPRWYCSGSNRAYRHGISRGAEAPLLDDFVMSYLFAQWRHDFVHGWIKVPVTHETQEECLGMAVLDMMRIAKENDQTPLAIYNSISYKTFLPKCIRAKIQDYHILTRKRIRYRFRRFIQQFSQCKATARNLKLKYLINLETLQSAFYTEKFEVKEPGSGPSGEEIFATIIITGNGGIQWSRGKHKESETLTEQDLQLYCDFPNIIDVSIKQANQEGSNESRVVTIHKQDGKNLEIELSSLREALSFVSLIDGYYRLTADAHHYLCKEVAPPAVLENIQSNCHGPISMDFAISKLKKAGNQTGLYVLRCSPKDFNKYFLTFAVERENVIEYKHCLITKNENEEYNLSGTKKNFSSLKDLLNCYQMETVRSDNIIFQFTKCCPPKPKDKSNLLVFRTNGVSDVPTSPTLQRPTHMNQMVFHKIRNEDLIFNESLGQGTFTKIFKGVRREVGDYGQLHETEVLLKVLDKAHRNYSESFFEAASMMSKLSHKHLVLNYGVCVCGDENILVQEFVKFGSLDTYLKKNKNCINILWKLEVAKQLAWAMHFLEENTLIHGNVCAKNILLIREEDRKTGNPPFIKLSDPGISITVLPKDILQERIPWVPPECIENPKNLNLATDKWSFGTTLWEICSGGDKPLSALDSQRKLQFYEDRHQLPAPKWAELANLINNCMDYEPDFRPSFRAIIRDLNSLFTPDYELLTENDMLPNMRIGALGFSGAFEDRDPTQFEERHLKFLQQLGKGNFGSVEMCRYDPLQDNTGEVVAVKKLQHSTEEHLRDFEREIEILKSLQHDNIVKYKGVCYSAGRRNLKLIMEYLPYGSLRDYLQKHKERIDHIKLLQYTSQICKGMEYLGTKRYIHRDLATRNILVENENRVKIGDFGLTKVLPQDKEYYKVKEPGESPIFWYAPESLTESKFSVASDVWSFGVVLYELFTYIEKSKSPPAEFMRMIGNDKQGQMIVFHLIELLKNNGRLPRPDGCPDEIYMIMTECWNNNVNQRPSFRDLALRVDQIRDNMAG
Sequence of JAK1 (P23458 whole entry): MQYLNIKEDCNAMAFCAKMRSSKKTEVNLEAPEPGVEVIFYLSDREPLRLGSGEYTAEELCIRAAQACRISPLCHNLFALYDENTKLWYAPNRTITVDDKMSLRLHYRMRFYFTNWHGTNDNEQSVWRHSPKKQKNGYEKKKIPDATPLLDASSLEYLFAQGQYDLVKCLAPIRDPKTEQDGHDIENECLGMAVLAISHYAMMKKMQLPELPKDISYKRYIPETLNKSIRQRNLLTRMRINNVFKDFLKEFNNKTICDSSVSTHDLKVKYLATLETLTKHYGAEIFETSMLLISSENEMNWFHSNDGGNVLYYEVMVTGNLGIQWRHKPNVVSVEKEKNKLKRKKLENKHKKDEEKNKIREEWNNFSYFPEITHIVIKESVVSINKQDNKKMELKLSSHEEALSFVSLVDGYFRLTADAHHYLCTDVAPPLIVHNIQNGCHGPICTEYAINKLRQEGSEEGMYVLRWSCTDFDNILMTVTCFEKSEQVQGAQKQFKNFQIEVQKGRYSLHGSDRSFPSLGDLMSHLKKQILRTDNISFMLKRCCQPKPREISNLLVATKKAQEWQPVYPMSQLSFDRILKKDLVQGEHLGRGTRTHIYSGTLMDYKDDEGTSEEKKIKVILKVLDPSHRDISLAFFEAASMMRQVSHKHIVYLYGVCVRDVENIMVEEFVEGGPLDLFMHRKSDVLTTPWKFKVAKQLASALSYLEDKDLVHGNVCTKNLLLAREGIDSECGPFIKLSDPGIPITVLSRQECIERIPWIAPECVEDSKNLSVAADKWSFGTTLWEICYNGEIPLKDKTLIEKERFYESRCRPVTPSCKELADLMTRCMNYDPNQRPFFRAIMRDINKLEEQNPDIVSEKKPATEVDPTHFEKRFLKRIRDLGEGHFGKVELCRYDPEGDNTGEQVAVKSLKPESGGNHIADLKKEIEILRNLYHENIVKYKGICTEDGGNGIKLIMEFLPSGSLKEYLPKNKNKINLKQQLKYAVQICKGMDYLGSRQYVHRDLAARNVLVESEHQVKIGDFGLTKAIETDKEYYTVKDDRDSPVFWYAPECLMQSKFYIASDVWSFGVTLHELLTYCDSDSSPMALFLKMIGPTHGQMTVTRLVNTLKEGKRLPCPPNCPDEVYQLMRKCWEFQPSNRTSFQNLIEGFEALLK
Sequence of c-Src (P12931 whole entry, looked up): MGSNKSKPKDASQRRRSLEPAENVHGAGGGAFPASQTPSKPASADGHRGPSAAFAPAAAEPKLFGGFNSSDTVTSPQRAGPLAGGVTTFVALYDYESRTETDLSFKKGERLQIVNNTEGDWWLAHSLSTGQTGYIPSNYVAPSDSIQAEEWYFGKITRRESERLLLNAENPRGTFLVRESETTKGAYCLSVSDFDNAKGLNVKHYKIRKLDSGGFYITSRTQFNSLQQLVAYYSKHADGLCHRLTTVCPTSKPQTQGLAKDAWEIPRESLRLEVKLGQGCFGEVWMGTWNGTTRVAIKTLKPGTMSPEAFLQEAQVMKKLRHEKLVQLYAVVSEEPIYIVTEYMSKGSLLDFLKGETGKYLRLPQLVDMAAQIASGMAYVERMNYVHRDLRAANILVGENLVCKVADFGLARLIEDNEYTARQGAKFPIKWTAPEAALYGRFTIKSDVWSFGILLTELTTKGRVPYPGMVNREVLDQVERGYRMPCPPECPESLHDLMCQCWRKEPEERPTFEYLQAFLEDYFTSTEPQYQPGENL

With `Cc1ccc(NC(=O)c2cccc(C(F)(F)F)c2)cc1N1CCc2nc(Nc3ccc(OCCN4CCCC4)cc3)ncc2C1` [Compound 9, N-(4-Methyl-3-{2-[4-(2-pyrrolidin-1-yl-ethoxy)-phenylamino]-7,8-dihydro-5H-pyrido[4,3-d]pyrimidin-6-yl}-phenyl)-3-trifluoromethyl-benzamide], in assay [1], the inhibition at 0.1 µM amounted to 58% and the inhibition at 1 µM is 85%.

Take `Cc1ccc(NC(=O)c2cccc(C(F)(F)F)c2)cc1N1CCc2nc(Nc3ccncc3)ncc2C1` [Compound 15, N-{4-Methyl-3-[2-(pyridin-4-ylamino)-7,8-dihydro-5H-pyrido[4,3-d]pyrimidin-6-yl]-phenyl}-3-trifluoromethyl-benzamide]: in assay [1], the inhibition at 0.1 µM was determined as 49% and the inhibition at 1 µM turned out to be 73%.

As to `Cc1ccc(NC(=O)c2cccc(C(F)(F)F)c2)cc1N1CCc2nc(Nc3ccc4c(c3)CCC(=O)N4)ncc2C1` [Compound 18, N-{4-Methyl-3-[2-(2-oxo-1,2,3,4-tetrahydro-quinolin-6-ylamino)-7,8-dihydro-5H-pyrido[4,3-d]pyrimidin-6-yl]-phenyl}-3-trifluoromethyl-benzamide], in assay [1], the inhibition at 0.1 µM was determined as 82% and the inhibition at 1 µM was determined as 89%.

For the compound `Cc1ccc(NC(=O)c2cccc(C(F)(F)F)c2)cc1N1CCc2nc(Nc3cccnc3)ncc2C1` [Compound 23, N-{4-Method-3-[2-(pyridin-3-ylamino)-7,8-dihydro-5H-pyrido[4,3-d]pyrimidin-6-yl]-phenyl}-3-trifluoromethyl-benzamide], in assay [1], the inhibition at 0.1 µM was found to be 84% and the inhibition at 1 µM came to 88%.

Turning to `Cc1ccc(NC(=O)c2cccc(C(F)(F)F)c2)cc1N1CCc2nc(Nc3ccnc(Cl)c3)ncc2C1` [Compound 25, N-{3-[2-(2-Chloro-pyridin-4-ylamino)-7,8-dihydro-5H-pyrido[4,3-d]pyrimidin-6-yl]-4-methyl-phenyl}-3-trifluoromethyl-benzamide], in assay [1], the inhibition at 0.1 µM was determined as 58% and the inhibition at 1 µM was found to be 96%.

Take `Cc1ccc(NC(=O)c2cccc(C(F)(F)F)c2)cc1N1CCc2nc(Nc3ccncc3)ncc2C1=O` [Compound 26, N-{4-Methyl-3-[5-oxo-2-(pyridin-4-ylamino)-7,8-dihydro-5H-pyrido[4,3-d]pyrimidin-6-yl]-phenyl}-3-trifluoromethyl-benzamide]: in assay [1], the inhibition at 0.1 µM turned out to be 57% and the inhibition at 1 µM amounted to 79%.

On to `Cc1ccc(C(=O)Nc2cccc(C(F)(F)F)c2)cc1N1CCc2nc(Nc3ccc(Cl)cc3)ncc2C1` [Compound 28], for which the “JAK1 % inhibition at 100 nM” value in assay [1] (100 nM) turned out to be 66%. Also, the “JAK1 % inhibition at 1 μM” value in assay [1] (1 μM) stood at 79%.

For the compound `Cc1ccc(NC(=O)c2cccc(C(F)(F)F)c2)cc1N1CCc2nc(Nc3ccc(C(=O)N4CCN(C)CC4)cc3)ncc2C1=O` [Compound 75, N-(4-Methyl-3-{2-[4-(4-methyl-piperazine-1-carbonyl)-phenylamino]-5-oxo-7,8-dihydro-5H-pyrido[4,3-d]pyrimidin-6-yl}-phenyl)-3-trifluoromethylbenza-mide], in assay [2], the inhibition at 0.1 µM stood at 83% and the inhibition at 1 µM was found to be 97%. In assay [3], this compound registered an IC50 of 0.019 µM. The compound further returned an EC50 in assay [4] of 4.67 µM. The compound further had an EC50 in assay [5] of 1.06 µM.

Regarding `Cc1ccc(NC(=O)c2cccc(C(F)(F)F)c2)cc1N1CCc2nc(Nc3ccc(CC(=O)N4CCN(C)CC4)cc3)ncc2C1=O` [Compound 76, N-[4-Methyl-3-(2-{4-[2-(4-methyl-piperazin-1-yl)-2-oxo-ethyl]-phenylamino}-5-oxo-7,8-dihydro-5H-pyrido[4,3-d]pyrimidin-6-yl)-phenyl]-3-trifluoromethylbenza-mide], the IC50 was determined as 0.061 µM in assay [2], 0.03 µM in assay [3] and 0.13 µM in assay [6]. In addition, the EC50 came out at 2.15 µM in assay [4] and 0.135 µM in assay [5].

Regarding `Cc1ccc(NC(=O)c2cccc(C(F)(F)F)c2)cc1N1CCc2nc(Nc3ccc(C(=O)NCCCN4CCCC4)cc3)ncc2C1=O` [Compound 77, N-(4-methyl-3-(5-oxo-2-(4-(3-(pyrrolidin-1-yl)propylcarbamoyl)phenylamino)-7,8-dihydropyrido[4,3-d]pyrimidin-6(5H)-yl)phenyl)-3-(trifluoromethyl) benzamide], the inhibition at 0.1 µM in assay [2] was 80%. For the same compound, the inhibition at 1 µM in assay [2] came to 96%. Moreover, the IC50 in assay [3] was 0.017 µM; in assay [6] it was 0.51 µM. The EC50 stood at 4.92 µM in assay [4] and 0.512 µM in assay [5].

For `CNC(=O)c1ccc(Nc2ncc3c(n2)CCN(c2cc(NC(=O)c4cccc(C(F)(F)F)c4)ccc2C)C3)cn1` [Compound 83, 5-{6-[2-Methyl-5-(3-trifluoromethyl-benzoylamino)-phenyl]-5,6,7,8-tetrahydro-pyrido[4,3-d]pyrimidin-2-ylamino}-pyridine-2-carboxylic acid methylamide], the IC50 in assay [2] came to 0.032 µM; in assay [3] it was 0.004 µM; in assay [6], 0.24 µM. Besides, the figures for the concentration for a half-maximal effect (EC50) in assay [4] and in assay [5] were 0.305 µM and 0.24 µM, respectively.

With `Cc1ccc(NC(=O)c2cccc(C(F)(F)F)c2)cc1N1CCc2nc(Nc3ccc(C(=O)NC4CCN(C)CC4)cc3)ncc2C1` [Compound 92], the results for the EC50 in assay [4] and in assay [5] were 0.005 µM and 0.026 µM, respectively. The IC50 in assay [6] worked out at 0.026 µM.

Regarding `Cc1ccc(NC(=O)c2cccc(C(F)(F)F)c2)cc1N1CCc2nc(Nc3cncnc3)ncc2C1` [Compound 94, N-{4-Methyl-3-[2-(pyrimidin-5-ylamino)-7,8-dihydro-5H-pyrido[4,3-d]pyrimidin-6-yl]-phenyl}-3-trifluoromethyl-benzamide], the results for the IC50 in assay [2], in assay [3] and in assay [6] were 0.019 µM, 0.002 µM and 0.16 µM, respectively. Also, the figures for the EC50 in assay [4] and in assay [5] were 0.05 µM and 0.18 µM, respectively.

Consider `Cc1ccc(NC(=O)c2cccc(C(F)(F)F)c2)cc1N1CCc2nc(Nc3ccc(C(=O)NCCO)cc3)ncc2C1` [Compound 98], for which the results for the IC50 in assay [2], in assay [3] and in assay [6] were 0.007 µM, 0.001 µM and 0.06 µM, respectively. Also, the results for the EC50 in assay [4] and in assay [5] were 0.05 µM and 0.061 µM, respectively.

Turning to `Cc1ccc(NC(=O)c2cccc(C(F)(F)F)c2)cc1N1CCc2nc(Nc3ccc(C(=O)N4CCCC4)cc3)ncc2C1` [Compound 99, N-(4-Methyl-3-{2-[4-(pyrrolidine-1-carbonyl)-phenylamino]-7,8-dihydro-5H-pyrido[4,3-d]pyrimidin-6-yl}-phenyl)-3-trifluoromethyl-benzamide], the IC50 in assay [2] stood at 0.014 µM; in assay [3], 0.006 µM; in assay [6], 0.3 µM. Moreover, the figures for the EC50 in assay [4] and in assay [5] were 0.12 µM and 0.29 µM, respectively.

Regarding `Cc1ccc(NC(=O)CC(C)C(F)(F)F)cc1N1CCc2nc(Nc3ccc(N4CCN(C)CC4)cc3)ncc2C1` (stereo not drawn) [Compound 123, 4,4,4-Trifluoro-3-methyl-N-(4-methyl-3-{2-[4-(4-methyl-piperazin-1-yl)-phenylamino]-7,8-dihydro-5H-pyrido[4,3-d]pyrimidin-6-yl}-phenyl)-butyramide], the IC50 amounted to 0.009 µM in assay [2], 0.003 µM in assay [3] and 0.19 µM in assay [6]. In addition, the EC50 in assay [4] is 0.83 µM.

In the case of `Cc1ccc(NC(=O)c2cc(C(F)(F)F)ccn2)cc1N1CCc2nc(Nc3ccc(N4CCN(C)CC4)cc3)ncc2C1` [Compound 146, 4-Trifluoromethyl-pyridine-2-carboxylic acid (4-methyl-3-{2-[4-(4-methyl-piperazin-1-yl)-phenylamino]-7,8-dihydro-5H-pyrido[4,3-d]pyrimidin-6-yl}-phenyl)-amide], the IC50 in assay [2] is 0.005 µM; in assay [3] it was 0.006 µM; in assay [6], 0.35 µM. This compound also gave an EC50 in assay [4] of 0.37 µM.

Consider `Cc1ccc(NC(=O)c2cccc(C(F)(F)F)c2)cc1N1CCc2nc(Nc3ccc(N4CCNCC4)cc3)ncc2C1=O` [Compound 178, N-{4-Methyl-3-[5-oxo-2-(4-piperazin-1-yl-phenylamino)-7,8-dihydro-5H-pyrido[4,3-d]pyrimidin-6-yl]-phenyl}-3-trifluoromethyl-benzamide], for which the IC50 was 0.007 µM in assay [2], 0.017 µM in assay [3] and 0.15 µM in assay [6]. The inhibition at 0.1 µM in assay [2] was 91%; in assay [3] (read-out: c-SRC % inhibition at 100 nM, 100 nM), 77%. Besides, the inhibition at 1 µM in assay [2] came out at 92%; in assay [3] (read-out: c-SRC % inhibition at 1 μM, 1 μM), 90%. The same compound yielded an EC50 in assay [4] of 1.75 µM.

By inhibition is commonly meant the percentage by which the read-out fell short of the control. The EC50 is the midpoint of the concentration-response curve. Read a high EC50 as lower potency in that assay.
